The values below are quoted from earlier work in patent publication US7691599B2, “Mammalian genes involved in viral infection and tumor suppression” (Zirus, Inc., priority 2002, dated 2010).

Usually t½ stands for how long it takes for the measured level to halve. Usually Cmax stands for the maximum level reached in the sampled fluid or tissue.

In data set [1] the target is T1, I747T mutant NR3C1 (glucocorticoid receptor) (Homo sapiens, UniProt P04150, I747T).
T1 sequence (P04150 1-777 I747T): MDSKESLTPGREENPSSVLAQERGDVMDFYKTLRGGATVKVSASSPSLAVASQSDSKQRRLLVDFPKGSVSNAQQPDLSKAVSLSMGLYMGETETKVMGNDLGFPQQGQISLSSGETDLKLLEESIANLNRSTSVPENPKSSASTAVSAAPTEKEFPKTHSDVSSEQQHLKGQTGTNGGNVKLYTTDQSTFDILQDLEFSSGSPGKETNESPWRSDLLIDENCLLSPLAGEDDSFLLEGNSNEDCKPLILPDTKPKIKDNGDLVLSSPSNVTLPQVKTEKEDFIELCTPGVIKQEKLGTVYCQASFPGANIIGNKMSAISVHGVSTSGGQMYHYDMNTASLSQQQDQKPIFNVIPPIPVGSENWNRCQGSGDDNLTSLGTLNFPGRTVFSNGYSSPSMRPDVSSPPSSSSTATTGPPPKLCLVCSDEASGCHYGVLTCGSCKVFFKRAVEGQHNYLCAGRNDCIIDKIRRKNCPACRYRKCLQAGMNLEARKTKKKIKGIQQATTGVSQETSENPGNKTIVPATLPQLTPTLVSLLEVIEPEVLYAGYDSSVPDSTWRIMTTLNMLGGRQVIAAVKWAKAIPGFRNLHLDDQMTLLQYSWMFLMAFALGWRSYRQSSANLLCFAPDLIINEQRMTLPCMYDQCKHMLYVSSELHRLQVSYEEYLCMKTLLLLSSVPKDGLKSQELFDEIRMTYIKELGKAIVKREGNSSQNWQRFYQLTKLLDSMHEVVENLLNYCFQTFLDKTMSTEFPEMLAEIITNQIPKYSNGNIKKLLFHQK

Data set [2] deals with tumour necrosis factor (TNF) release in whole blood.
In data set [3] the test system is mononuclear cell proliferation. The settings on record: whole blood, 3 h (P<<0.05).
The conditions of data set [4]: for plasma concentration at 3 h: 3 h after single oral dose of 300 mg V11294A; for AUC(0, infinity) / t½ / Cmax: plasma; for AUC(0, infinity) / t½: single oral dose of 300 mg V11294A; for Cmax: single oral fasting dose of 300 mg V11294A, mean +/− s.d.
Another data set has as its target T2, monoamine oxidase type A (Mus musculus, UniProt Q64133).
T2 construct: from tissue; host or cells: whole animal: transgenic mice expressing antisense RNA against glucocorticoid receptor mRNA
T2 sequence (Q64133 1-526): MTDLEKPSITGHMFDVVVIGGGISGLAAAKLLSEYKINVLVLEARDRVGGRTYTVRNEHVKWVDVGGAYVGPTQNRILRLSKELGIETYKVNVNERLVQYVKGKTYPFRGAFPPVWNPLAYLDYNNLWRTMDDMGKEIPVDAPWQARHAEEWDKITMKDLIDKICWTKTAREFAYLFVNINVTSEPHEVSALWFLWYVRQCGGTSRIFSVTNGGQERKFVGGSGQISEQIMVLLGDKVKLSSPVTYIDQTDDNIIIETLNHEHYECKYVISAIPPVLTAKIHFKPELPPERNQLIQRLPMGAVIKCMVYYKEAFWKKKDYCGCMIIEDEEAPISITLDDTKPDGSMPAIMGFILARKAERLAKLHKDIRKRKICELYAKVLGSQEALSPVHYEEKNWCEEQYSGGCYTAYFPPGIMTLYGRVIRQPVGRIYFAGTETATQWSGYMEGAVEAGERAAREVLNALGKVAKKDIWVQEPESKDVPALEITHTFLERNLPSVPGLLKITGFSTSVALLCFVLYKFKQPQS
Particulars: transgenic mice with reduced glucocorticoid receptor function.

A further data set addresses T3, ADAM 10 (Bos taurus, UniProt Q10741).
T3 construct: purified a protease with characteristics of TNFalpha convertase from bovine spleen membranes; from tissue; host or cells: bovine spleen membranes
T3 sequence (Q10741 214-748): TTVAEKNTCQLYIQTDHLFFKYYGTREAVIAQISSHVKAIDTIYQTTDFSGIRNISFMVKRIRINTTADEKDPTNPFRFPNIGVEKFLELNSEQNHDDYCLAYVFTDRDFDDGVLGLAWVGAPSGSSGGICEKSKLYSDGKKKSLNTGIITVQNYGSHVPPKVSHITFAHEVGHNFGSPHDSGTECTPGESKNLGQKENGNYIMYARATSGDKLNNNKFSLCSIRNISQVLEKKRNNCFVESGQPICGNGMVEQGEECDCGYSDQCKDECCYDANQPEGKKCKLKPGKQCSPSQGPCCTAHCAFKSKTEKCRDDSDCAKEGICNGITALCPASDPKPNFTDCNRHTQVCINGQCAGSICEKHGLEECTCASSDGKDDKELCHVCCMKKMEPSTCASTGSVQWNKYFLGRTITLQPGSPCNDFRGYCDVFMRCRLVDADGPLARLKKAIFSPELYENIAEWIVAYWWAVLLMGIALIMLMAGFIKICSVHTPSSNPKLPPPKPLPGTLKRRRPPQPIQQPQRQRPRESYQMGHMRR
Particulars: ADAM 10 purified from bovine spleen membranes.

Molecules are shown by their SMILES. Like-named read-outs stand apart in the source and are kept apart here.

Take `C[C@]12CCC(=O)C=C1CC[C@@H]1[C@@H]2[C@@H](O)C[C@@]2(C)[C@H]1CC[C@]2(O)C(=O)CO` [cortisol]: the “transactivation by I747T mutant NR3C1” value in data set [1] is “completely inactive”.

As for `CCNc1ncn(Cc2ccc(OC)c(OC3CCCC3)c2)c2nc(C(C)C)nc1-2.Cl` [V11294A, 3-(3-cyclopentyloxy-4-methoxybenzyl)-6-ethylamino-8-isopropyl-3H purine hydrochloride], the “LPS-induced TNF release” value in data set [2] (3 h post ingestion (P<<0.001)) is recorded as “significant reduction”. Besides, the “LPS-induced TNF release” value in data set [2] (24 h post ingestion (P<<0.05)) is given as “significant reduction”. In addition, in data set [2] (LPS 4 ng ml−1, whole blood, 3 h postdose (before 778+/−87, P=0.02)), the “amount of TNF released in response to LPS” value is 566 ± 72 pmol/mL. The PHA-induced proliferation result in data set [3] was “inhibited”. Further, in data set [4], the “plasma concentration at 3 h” value was 1.3 ± 0.33 µg/mL; the “AUC(0, infinity)” value is 18.1 ± 6.1 µg·h/mL; the t½ is 9.7 ± 3.9 h. For the same compound, the Cmax in data set [4] (healthy volunteers) is 1.398 ± 0.298 µg/mL. The adverse reactions result in data set [4] (single oral administration, 300 mg, healthy volunteers) is listed as “No adverse reactions were noted”.

Regarding `O=C(NCCN1CCOCC1)c1ccc(Cl)cc1` [moclobemide], at monoamine oxidase type A, the behavioral deficits entry is on record as “reversed the behavioral deficits”.

With `COc1ccc(Cn2cnc(N)c3nc(C(C)C)nc2-3)cc1OC1CCCC1` [V10332, 3-(3-cyclopentyloxy-4-methoxy-benzyl)-8-isopropyl-3H-purin-6-ylamine], in data set [4], the “plasma concentration at 3 h” value was 0.86 ± 0.3 µg/mL; the “AUC(0, infinity)” value was 18.6 ± 8.5 µg·h/mL; the t½ is 9.5 ± 1.7 h. For the same compound, the Cmax in data set [4] (healthy volunteers) was 1 ± 0.4 µg/mL.

Turning to `CC(C)C[C@H](NP(=O)(O)O[C@@H]1O[C@@H](C)[C@H](O)[C@@H](O)[C@H]1O)C(=O)N[C@@H](Cc1c[nH]c2ccccc12)C(=O)O` [phosphoramidon], the “sensitivity of the enzyme to inhibitor” value on ADAM 10 is recorded as “insensitive”.

On to `C[C@]12C[C@H](O)[C@H]3[C@@H](CCC4=CC(=O)CC[C@@]43C)[C@@H]1CC[C@@H]2C(=O)CO` [corticosterone], for which the “transactivation by I747T mutant NR3C1” value in data set [1] was “completely inactive”.
